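Protocol summary: plate cells (96-well), add compound at 5 concentrations, incubate 48 h, interpolate endpoints linearly. TGI: concentration producing complete growth inhibition.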
What was measured:
Test in all cases: inhibition of tumour cell growth, NCI panel, 48 h
SK-MEL-5 melanoma = test system: SK-MEL-5 melanoma
MDA-MB-231 breast = test system: MDA-MB-231 breast
ACHN renal = test system: ACHN renal
U251 CNS = test system: U251 CNS
KM12 colon = test system: KM12 colon
TK-10 renal = test system: TK-10 renal
SNB-19 CNS = test system: SNB-19 CNS
MOLT-4 leukemia = test system: MOLT-4 leukemia
PC-3 prostate = test system: PC-3 prostate
HCT-15 colon = test system: HCT-15 colon

Measured: TGI

O=C(O)c1cccc(S(=O)(=O)NN2C(=O)CSC2c2ccccc2Cl)c1 (stereo not given)
> 100 µM: all assays above

CSc1ncc2c(C#N)c3ccccn3c(=O)c2n1
> 100 µM: all assays above

Cc1ccccc1C(=O)NC(O)(C(F)(F)F)C(F)(F)F
> 100 µM: all assays above

Clc1cc2nnn(C3CCCCO3)c2cc1Cl (stereo not given)
> 100 µM: all assays above

CCn1c(SCC(=O)NNC(=S)Nc2ccc(Cl)cc2)nc2ccccc2c1=O
> 100 µM: all assays above

C[As](C)SCC(NC(=O)CCC(N)C(=O)O)C(=O)NCC(=O)O.Cl.c1ccncc1 (stereo not given)
0.977 µM: HCT-15 colon
0.912 µM: MDA-MB-231 breast
0.595 µM: TK-10 renal
3.81 µM: KM12 colon
0.878 µM: SK-MEL-5 melanoma
5.58 µM: U251 CNS
4 µM: PC-3 prostate
1.1 µM: ACHN renal
25.5 µM: SNB-19 CNS

N#Cc1c(N)nc2c(N=Nc3ccccc3)c(N)nn2c1Nc1ccccc1
18.1 µM: KM12 colon
52.6 µM: TK-10 renal
32.6 µM: SK-MEL-5 melanoma
39.9 µM: SNB-19 CNS
7.97 µM: MOLT-4 leukemia
47.6 µM: MDA-MB-231 breast
24.6 µM: U251 CNS
61.9 µM: ACHN renal
> 100 µM: HCT-15 colon

c1csc(-c2cscc2-c2cccs2)c1
39.9 µM: PC-3 prostate
> 100 µM: all other assays above

CC(=O)OCC1=C2C(OC(=O)C(C)C)CC3(COC(C)=O)OC3/C=C\C3(C)OC3C2OC1=O (stereo not given)
> 100 µM: all assays above

C=C(C)C1Cc2c(cc(OC)c3c(=O)c4ccccc4n(C)c23)O1 (stereo not given)
not listed: MDA-MB-231 breast | MOLT-4 leukemia | PC-3 prostate
> 100 µM: all other assays above

CN(C)C=NCc1ccc2c(c1)OCO2
> 100 µM: all assays above

— PubChem BioAssay (NCI)
